# Measurements reported in patent publication US20240076293A1, “Compositions and Methods for Inhibiting Fibrosis, Inflammation and Cancer” (Georgia Tech Research Corporation, priority 2020, published 2024).
# Structures can show the parent of a compound that is named as a salt. Where two headings read alike, the source gives them in different places.
# Columns and labels:
# Type in all cases: cell-based
# [1] = system: MRC-5; assay: Anti-proliferation IC50, MRC-5; conditions: Homo sapiens, MRC5; Table 2, compounds of formula II
# [2] = system: Hep-G2; assay: Anti-proliferation IC50, Hep-G2; conditions: Homo sapiens, HepG2
# [3] = system: VERO; assay: Anti-proliferation IC50, VERO; conditions: Chlorocebus sabaeus
# [4] = system: A549; assay: Anti-proliferation IC50, A549; conditions: Homo sapiens
# [5] = system: MCF-7; assay: Anti-proliferation IC50, MCF-7; conditions: Homo sapiens, MCF7
# [6] = system: MDA-MB-231; assay: Anti-proliferation IC50, MDA-MB-231; conditions: Homo sapiens
# [7] = Anti-proliferation IC50, MRC-5; conditions: human, MRC-5 cells; Table 1, compounds of formula I; NI = no inhibition up to 500 μM
# [8] = Table 2, compounds of formula II, read-out: Anti-proliferation IC50 Hep-G2
# [9] = Table 2, compounds of formula II, read-out: Anti-proliferation IC50 VERO
# [10] = Table 2, compounds of formula II, read-out: Anti-proliferation IC50 A549
# [11] = Table 2, compounds of formula II, read-out: Anti-proliferation IC50 MCF-7
# [12] = Table 2, compounds of formula II, read-out: Anti-proliferation IC50 MDA-MB-231
# [13] = Table 1, compounds of formula I, NI = no inhibition up to 500 μM, read-out: Hep-G2 (IC50)
# [14] = Table 1, compounds of formula I, NI = no inhibition up to 500 μM, read-out: VERO (IC50)
# [15] = Table 1, compounds of formula I, NI = no inhibition up to 500 μM, read-out: A549 (IC50)
# [16] = Table 1, compounds of formula I, NI = no inhibition up to 500 μM, read-out: MCF-7 (IC50)
# [17] = Table 1, compounds of formula I, NI = no inhibition up to 500 μM, read-out: MDA-MB-231 (IC50)
# [18] = Anti-proliferation IC50 for the new compounds, read-out: Hep-G2 (IC50 μM)
# [19] = Anti-proliferation IC50 for the new compounds, read-out: VERO (IC50 μM)
# [20] = Anti-proliferation IC50 for the new compounds, read-out: MDA-MB-231 (IC50 μM)
# [21] = Anti-proliferation IC50 for the new compounds, read-out: MCF-7 (IC50 μM)
"IC50 [2, 8]","IC50 [4, 10]","IC50 [2, 13]","IC50 [4, 15]","IC50 [5, 16]","IC50 [6, 17]",SMILES,IC50 [1],"IC50 [3, 9]",IC50 [7],"IC50 [3, 14]",other results
118 µM,284 µM,–,–,–,–,CC[C@@H]1OC(=O)[C@@H](C)[C@H](O[C@H]2C[C@@](C)(OC)[C@@H](O)[C@H](C)O2)[C@@H](C)[C@H](O[C@H]2O[C@@H](C)C[C@@H](N(C)C)[C@@H]2OC(=O)/C=C/C(=O)OC)C(C)(O)C[C@H](C)CN(C)[C@@H](C)[C@H](O)[C@@]1(C)O (stereo partly shown),68.3 µM,238 ± 29.1 µM,–,–,"IC50 [5, 11]: 278 µM; IC50 [6, 12]: 118 µM"
–,–,> 500 µM,> 500 µM,> 500 µM,65 ± 0.9 µM,CC[C@H]1OC(=O)[C@@H](C)[C@@H](O[C@@H]2C[C@](C)(OC)[C@H](O)[C@@H](C)O2)[C@@H](C)[C@@H](O[C@H]2O[C@@H](C)C[C@@H](N(C)C)[C@@H]2OC(=O)CCCC[C@H]2CCSS2)[C@](C)(OC)C[C@@H](C)C(=O)[C@H](C)[C@H](O)[C@]1(C)O,–,–,44.8 ± 7.1 µM,> 500 µM,–
–,–,222 ± 5.3 µM,> 500 µM,477.3 ± 3.4 µM,414.4 ± 1.7 µM,CC[C@H]1OC(=O)[C@@H](C)[C@@H](O)[C@@H](C)[C@@H](O[C@H]2O[C@@H](C)C[C@@H](N(C)C)[C@@H]2OC(=O)CCCC[C@H]2CCSS2)[C@](C)(OC)C[C@@H](C)C(=O)[C@H](C)[C@H](O)[C@]1(C)O,–,–,262.6 ± 0.4 µM,> 500 µM,–
63.6 ± 7.7 µM,141 ± 4.3 µM,–,–,–,–,CCCCOC(=O)/C=C/C(=O)O[C@@H]1[C@@H](O[C@H]2[C@H](C)[C@@H](O[C@H]3C[C@@](C)(OC)[C@@H](O)[C@H](C)O3)[C@H](C)C(=O)O[C@@H](CC)[C@](C)(O)[C@@H](O)[C@H](C)N(C)C[C@@H](C)CC2(C)O)O[C@@H](C)C[C@H]1N(C)C (stereo partly shown),43.6 ± 8.5 µM,126 ± 2.4 µM,–,–,"IC50 [5, 11]: 50 ± 1.5 µM; IC50 [6, 12]: 29.6 ± 3 µM"
29.5 ± 4.4 µM,23 ± 0.5 µM,–,–,–,–,CC[C@@H]1OC(=O)[C@@H](C)[C@H](O[C@H]2C[C@@](C)(OC)[C@@H](O)[C@H](C)O2)[C@@H](C)[C@H](O[C@@H]2O[C@H](C)C[C@H](N(C)C)[C@H]2OC(=O)CCCC[C@H]2CCSS2)C(C)(O)C[C@H](C)CN(C)[C@@H](C)[C@H](O)[C@@]1(C)O (stereo partly shown),13.4 ± 0.4 µM,54.5 ± 0.8 µM,–,–,"IC50 [5, 11]: 38.2 ± 0.8 µM; IC50 [6, 12]: 45 ± 1.3 µM"
14.4 ± 0.6 µM,26.9 µM,–,–,–,–,CC[C@@H]1OC(=O)[C@@H](C)[C@H](OC2C[C@@](C)(OC)[C@@H](O)[C@H](C)O2)[C@@H](C)[C@H](O[C@H]2O[C@@H](C)C[C@@H](N(C)Cc3ccc(-c4cn(CCCNC(=O)CCCC[C@H]5CCSS5)nn4)cc3)[C@@H]2O)C(C)(O)C[C@H](C)CN(C)[C@@H](C)[C@H](O)[C@@]1(C)O (stereo partly shown),24.5 ± 2.6 µM,40.3 ± 4.9 µM,–,–,"IC50 [5, 11]: 26.8 ± 7.1 µM; IC50 [6, 12]: 21.3 ± 1.5 µM"
–,–,–,–,–,–,CC[C@H]1OC(=O)[C@H](C)[C@@H](O[C@H]2C[C@@](C)(OC)[C@@H](O)[C@H](C)O2)[C@H](C)[C@@H](O[C@@H]2O[C@H](C)C[C@H](N(C)C)C2OC(=O)CCCCC(CCSCc2ccccc2)SCc2ccccc2)[C@](C)(O)C[C@@H](C)CN(C)[C@H](C)[C@@H](O)[C@]1(C)O (stereo partly shown) [AO-03-032],–,–,–,–,"IC50 [2, 18]: 4.2 µM; IC50 [3, 19]: 10.4 µM; IC50 ([4]; Anti-proliferation IC50 for the new compounds, read-out: A549 (IC50 μM)): 7.6 µM; IC50 [6, 20]: 6.4 µM"
–,–,209 ± 11.2 µM,> 500 µM,72.3 ± 5.2 µM,28.4 ± 3.9 µM,CCCCOC(=O)/C=C/C(=O)N(C)[C@@H]1C[C@H](C)O[C@H](O[C@@H]2[C@H](C)[C@H](O[C@H]3C[C@@](C)(OC)[C@@H](O)[C@H](C)O3)[C@H](C)C(=O)O[C@H](CC)[C@@](C)(O)[C@@H](O)[C@@H](C)C(=O)[C@H](C)C[C@@]2(C)OC)[C@H]1O,–,–,44.9 ± 0.6 µM,68.3 ± 16.8 µM,–
2.8 µM,6.1 ± 0.3 µM,–,–,–,–,CC[C@H]1OC(=O)[C@H](C)[C@@H](O[C@H]2C[C@@](C)(OC)[C@@H](O)[C@H](C)O2)[C@H](C)[C@@H](O[C@@H]2O[C@H](C)C[C@H](N(C)CCCCCC#Cc3ccc(-n4cc(C)ccc4=O)cc3)[C@H]2O)[C@](C)(O)C[C@@H](C)CN(C)[C@H](C)[C@@H](O)[C@]1(C)O [Compound 20e],2.2 ± 0.1 µM,4.7 ± 0.3 µM,–,–,–
–,–,133 µM,278 µM,128 ± 16.5 µM,140 µM,CC[C@H]1OC(=O)[C@@H](C)[C@@H](O[C@H]2C[C@@](C)(OC)[C@@H](O)[C@H](C)O2)[C@@H](C)[C@@H](O[C@H]2O[C@@H](C)C[C@@H](N(C)C)[C@@H]2OC(=O)/C=C/C(=O)OC)[C@](C)(OC)C[C@@H](C)C(=O)[C@H](C)[C@H](O)[C@]1(C)O,–,–,88.4 µM,219 ± 45.8 µM,–
–,–,> 500 µM,> 500 µM,> 500 µM,> 500 µM,"COC(=O)/C=C/C(=O)OC [Dimethyl Fumarate, reference compound]",–,–,259 µM,844 µM,–
–,–,> 500 µM,> 500 µM,> 500 µM,> 500 µM,"O=C(O)CCCCC1CCSS1 (stereo not shown) [Lipoic acid (ALA), Lipoic acid, reference compound]",–,–,> 500 µM,> 500 µM,–
24.8 ± 1.7 µM,31.2 ± 4.8 µM,–,–,–,–,CC[C@H]1OC(=O)[C@H](C)[C@@H](O[C@H]2C[C@@](C)(OC)[C@@H](O)[C@H](C)O2)[C@H](C)[C@@H](O[C@@H]2O[C@H](C)C[C@H](N(C)CCC#Cc3ccc(-n4cc(C)ccc4=O)cc3)[C@H]2O)[C@](C)(O)C[C@@H](C)CN(C)[C@H](C)[C@@H](O)[C@]1(C)O [Compound 20b],19.1 ± 2.6 µM,28.5 ± 1.8 µM,–,–,–
14.8 ± 2.1 µM,27.4 ± 0.5 µM,–,–,–,–,CC[C@@H]1OC(=O)[C@@H](C)[C@H](O)[C@@H](C)[C@H](O[C@H]2O[C@@H](C)C[C@@H](N(C)Cc3ccc(-c4cn(CCNC(=O)CCCC[C@H]5CCSS5)nn4)cc3)[C@@H]2O)C(C)(O)C[C@H](C)CN(C)[C@@H](C)[C@H](O)[C@@]1(C)O (stereo partly shown),17.9 ± 0.5 µM,47.7 ± 6.2 µM,–,–,–
–,–,–,–,–,–,"O=C(O)CCCCC(CCSCc1ccccc1)SCc1ccccc1 (stereo not shown) [CIP-613, reference compound]",–,–,–,–,"IC50 [2, 18]: 232 µM; IC50 [3, 19]: 224 µM; IC50 [5, 21]: 206 µM; IC50 [6, 20]: 236 µM"
2.6 ± 0.1 µM,5 ± 0.2 µM,–,–,–,–,CC[C@H]1OC(=O)[C@H](C)[C@@H](O[C@H]2C[C@@](C)(OC)[C@@H](O)[C@H](C)O2)[C@H](C)[C@@H](O[C@@H]2O[C@H](C)C[C@H](N(C)Cc3ccc(-c4cn(CCCCc5ccc(-n6cc(C)ccc6=O)cc5)nn4)cc3)[C@H]2O)[C@](C)(O)C[C@@H](C)CN(C)[C@H](C)[C@@H](O)[C@]1(C)O [Compound 15c],5.7 ± 0.1 µM,5.9 ± 0.1 µM,–,–,–
–,–,49.2 ± 1.8 µM,56.9 ± 0.8 µM,53.6 ± 0.2 µM,58.5 ± 3.2 µM,CC[C@H]1OC(=O)[C@@H](C)[C@@H](O[C@H]2C[C@@](C)(OC)[C@@H](O)[C@H](C)O2)[C@@H](C)[C@@H](O[C@H]2O[C@@H](C)C[C@@H](N(C)Cc3ccc(-c4cn(CCCNC(=O)CCCC[C@H]5CCSS5)nn4)cc3)[C@@H]2O)[C@](C)(OC)C[C@@H](C)C(=O)[C@H](C)[C@H](O)[C@]1(C)O,–,–,51.6 ± 5 µM,58.1 ± 2.7 µM,–
225 ± 12.8 µM,282 ± 14.3 µM,–,–,–,–,CC[C@@H]1OC(=O)[C@@H](C)[C@H](O)[C@@H](C)[C@H](O[C@@H]2O[C@H](C)C[C@H](N(C)C)[C@H]2OC(=O)CCCC[C@H]2CCSS2)C(C)(O)C[C@H](C)CN(C)[C@@H](C)[C@H](O)[C@@]1(C)O (stereo partly shown),143 ± 17.1 µM,273 ± 26.9 µM,–,–,"IC50 [6, 12]: 400 ± 32.4 µM"
163.4 ± 1.6 µM,144 ± 24.5 µM,–,–,–,–,CC[C@H]1OC(=O)[C@H](C)[C@@H](O[C@H]2C[C@@](C)(OC)[C@@H](O)[C@H](C)O2)[C@H](C)[C@@H](O[C@@H]2O[C@H](C)C[C@H](N(C)Cc3cn(CCc4ccc(-n5cc(C)ccc5=O)cc4)nn3)[C@H]2O)[C@](C)(O)C[C@@H](C)CN(C)[C@H](C)[C@@H](O)[C@]1(C)O [Compound 13b],172 ± 26.9 µM,151 ± 30.6 µM,–,–,–
–,–,–,–,–,–,CC[C@H]1OC(=O)[C@H](C)[C@@H](O[C@H]2C[C@@](C)(OC)[C@@H](O)[C@H](C)O2)[C@H](C)[C@@H](O[C@@H]2O[C@H](C)C[C@H](N(C)C(=O)CCCCC(CCSCc3ccccc3)SCc3ccccc3)[C@H]2O)[C@](C)(O)C[C@@H](C)CN(C)[C@H](C)[C@@H](O)[C@]1(C)O (stereo partly shown) [AZM-613],–,–,–,–,"IC50 [2, 18]: 2.9 µM; IC50 [3, 19]: 6.5 µM; IC50 [5, 21]: 2.8 µM; IC50 [6, 20]: 2.1 µM"
–,–,57.3 ± 1.2 µM,58.6 ± 0.6 µM,42.3 ± 4.4 µM,56.9 ± 1.3 µM,CC[C@H]1OC(=O)[C@@H](C)[C@@H](O[C@H]2C[C@@](C)(OC)[C@@H](O)[C@H](C)O2)[C@@H](C)[C@@H](O[C@H]2O[C@@H](C)C[C@@H](N(C)Cc3ccc(-c4cn(CCNC(=O)CCCC[C@H]5CCSS5)nn4)cc3)[C@@H]2O)[C@](C)(OC)C[C@@H](C)C(=O)[C@H](C)[C@H](O)[C@]1(C)O,–,–,56.1 ± 1.2 µM,65 ± 12.2 µM,–
